The assay concerns L1210 leukemia ip in BDF1 mice, survival T/C. As to the kind of experiment: NCI In Vivo Anticancer Drug Screen. Data for tumor model L1210 Leukemia (intraperitoneal) in B6D2F1 (BDF1) mice. The settings on record: endpoint: mean survival time, higher = longer survival. In a few lines: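 In this screen, tumor-bearing mice given compound are compared to those given vehicle, and their survival values are reported as a treated-to-control quotient.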

Setting [1] is: dose: 100.0 mg/kg/injection, schedule: Q04DX002 (ip), vehicle: Klucel (hydroxypropylcellulose) (HPC).
Setting [2] is: dose: 100.0 mg/kg/injection, schedule: Q01DX009 (ip), vehicle: saline with Tween-80.
Setting [3] is: dose: 200.0 mg/kg/injection, schedule: Q01DX009 (ip), vehicle: saline with Tween-80.
Setting [4] is: dose: 100.0 mg/kg/injection, schedule: Q01DX001 (ip), vehicle: saline.
[5] abbreviates: dose: 200.0 mg/kg/injection, schedule: Q01DX001 (ip), vehicle: saline.
[6] abbreviates: dose: 400.0 mg/kg/injection, schedule: Q01DX001 (ip), vehicle: saline.
[7] abbreviates: dose: 50.0 mg/kg/injection, schedule: Q01DX009 (ip), vehicle: saline with Tween-80.
The mark [8] stands for this setting: dose: 100.0 mg/kg/injection, schedule: Q04DX003 (ip), vehicle: saline with Tween-80.
Where [9] appears, read: dose: 200.0 mg/kg/injection, schedule: Q04DX003 (ip), vehicle: saline with Tween-80.
The mark [10] stands for this setting: dose: 400.0 mg/kg/injection, schedule: Q04DX003 (ip), vehicle: saline with Tween-80.

Several values for one entry are separate records, joined by “and”; a condition that tells them apart may be missing. Identical values can stand only once. Inconclusive results and toxic doses are left out. Peptide text beside a SMILES is read from it. * marks the point of attachment. Cbz = O=C(OCc1ccccc1)*; OtBu = CC(C)(C)O*

Turning to `CCCCCCCCCCCCCCCCCC1=NCCN1`, the T/C is, setting by setting: (dose: 6.25 mg/kg/injection, schedule: Q01DX009 (ip), vehicle: Klucel (hydroxypropylcellulose) (HPC)) 95 % of control; (dose: 12.5 mg/kg/injection, schedule: Q01DX009 (ip), vehicle: Klucel (hydroxypropylcellulose) (HPC)) 87 % of control; (dose: 25.0 mg/kg/injection, schedule: Q01DX009 (ip), vehicle: Klucel (hydroxypropylcellulose) (HPC)) 92 % of control; (dose: 25.0 mg/kg/injection, schedule: Q04DX002 (ip), vehicle: Klucel (hydroxypropylcellulose) (HPC)) 103 % of control; (dose: 50.0 mg/kg/injection, schedule: Q01DX001 (ip), vehicle: other) 91 % of control; (dose: 50.0 mg/kg/injection, schedule: Q04DX002 (ip), vehicle: Klucel (hydroxypropylcellulose) (HPC)) 103 % of control. Besides, the T/C is 97 % of control (dose: 100.0 mg/kg/injection, schedule: Q01DX001 (ip), vehicle: other); 95 % of control and 98 % of control under setting [1]; 89 % of control (dose: 200.0 mg/kg/injection, schedule: Q01DX001 (ip), vehicle: other); 97 % of control (dose: 400.0 mg/kg/injection, schedule: Q01DX001 (ip), vehicle: other).

Turning to `NC(=O)c1ccccc1OC(=O)Nc1ccccc1F`, the T/C is, setting by setting: under setting [2], 106 % of control; under setting [3], 107 % of control; (dose: 400.0 mg/kg/injection, schedule: Q01DX009 (ip), vehicle: saline with Tween-80) 107 % of control.

For `Nc1cc(=O)n(Cc2ccccc2)c(=O)n1Cc1ccccc1`, the T/C reads like this: (dose: 50.0 mg/kg/injection, schedule: Q01DX001 (ip), vehicle: carboxymethylcellulose (CMC)) 104 % of control; (dose: 100.0 mg/kg/injection, schedule: Q01DX001 (ip), vehicle: carboxymethylcellulose (CMC)) 101 % of control; (dose: 200.0 mg/kg/injection, schedule: Q01DX001 (ip), vehicle: carboxymethylcellulose (CMC)) 111 % of control; (dose: 400.0 mg/kg/injection, schedule: Q01DX001 (ip), vehicle: carboxymethylcellulose (CMC)) 98 % of control.

With `O=C1NCC(Nc2ccc(Cl)cc2)C(=O)N1` (centres undefined), the T/C was 89 % of control (dose: 100.0 mg/kg/injection, schedule: Q01DX Z (ip), vehicle: methylcellulose (MC)) and 92 % of control (dose: 200.0 mg/kg/injection, schedule: Q01DX Z (ip), vehicle: methylcellulose (MC)).

Consider `COc1ccc(C(CC(C)=O)c2c(O)c3ccccc3oc2=O)cc1OC` (centres undefined), for which the T/C is 102 % of control (dose: 1.56 mg/kg/injection, schedule: Q01DX009 (ip), vehicle: water); 97 % of control (dose: 3.12 mg/kg/injection, schedule: Q01DX009 (ip), vehicle: water); 98 % of control (dose: 6.25 mg/kg/injection, schedule: Q01DX009 (ip), vehicle: water); 93 % of control (dose: 12.5 mg/kg/injection, schedule: Q01DX009 (ip), vehicle: water); 93 % of control and 86 % of control (dose: 25.0 mg/kg/injection, schedule: Q01DX009 (ip), vehicle: water).

Consider `CCN1CCC(CCOC)(CN2c3ccccc3Sc3ccccc32)C1` (centres undefined), for which the T/C is 95 % of control (dose: 12.5 mg/kg/injection, schedule: Q04DX003 (ip), vehicle: saline); 97 % of control (dose: 25.0 mg/kg/injection, schedule: Q04DX003 (ip), vehicle: saline); 104 % of control (dose: 50.0 mg/kg/injection, schedule: Q04DX003 (ip), vehicle: saline).

In the case of `CCCCC(CCCC)c1ccccn1`, the T/C (dose: 100.0 mg/kg/injection, schedule: Q04DX003 (ip), vehicle: saline) is 97 % of control; the T/C (dose: 200.0 mg/kg/injection, schedule: Q04DX003 (ip), vehicle: saline) is 97 % of control; the T/C (dose: 400.0 mg/kg/injection, schedule: Q04DX003 (ip), vehicle: saline) is 93 % of control.

For the molecule `Clc1ncnc2c1ncn2C1CCCO1` (centres undefined), the T/C is 97 % of control under setting [4]; 113 % of control (dose: 178.0 mg/kg/injection, schedule: Q01DX009 (ip), vehicle: saline); 96 % of control under setting [5]; 113 % of control (dose: 267.0 mg/kg/injection, schedule: Q01DX009 (ip), vehicle: saline); 112 % of control under setting [6]; 154 % of control (dose: 400.0 mg/kg/injection, schedule: Q01DX009 (ip), vehicle: saline).

Regarding `CCC(=O)OC1(c2ccccc2)CCN(CC2CC2)CC1C` (centres undefined), the T/C is 105 % of control (dose: 20.0 mg/kg/injection, schedule: Q04DX003 (ip), vehicle: saline); 111 % of control (dose: 40.0 mg/kg/injection, schedule: Q04DX003 (ip), vehicle: saline); 91 % of control (dose: 80.0 mg/kg/injection, schedule: Q04DX003 (ip), vehicle: saline).

Turning to `C=C(C)C1(O)C=CC(=O)O1` (centres undefined), the T/C is 102 % of control (dose: 12.5 mg/kg/injection, schedule: Q01DX009 (ip), vehicle: saline); 100 % of control (dose: 25.0 mg/kg/injection, schedule: Q01DX009 (ip), vehicle: saline); 107 % of control (dose: 50.0 mg/kg/injection, schedule: Q01DX009 (ip), vehicle: saline).

On to `CNC(=S)Nc1c(C)cc(C)cc1C`, for which the T/C is, setting by setting: (dose: 25.0 mg/kg/injection, schedule: Q01DX009 (ip), vehicle: saline with Tween-80) 98 % of control and 108 % of control; (dose: 50.0 mg/kg/injection, schedule: Q01DX001 (ip), vehicle: saline with Tween-80) 100 % of control; under setting [7], 98 % of control and 105 % of control; (dose: 100.0 mg/kg/injection, schedule: Q01DX001 (ip), vehicle: saline with Tween-80) 91 % of control; under setting [2], 97 % of control and 92 % of control; (dose: 100.0 mg/kg/injection, schedule: Q04DX002 (ip), vehicle: saline with Tween-80) 104 % of control and 106 % of control. Besides, the T/C under setting [8] is 104 % of control; the T/C (dose: 200.0 mg/kg/injection, schedule: Q01DX001 (ip), vehicle: saline with Tween-80) is 96 % of control; the T/C (dose: 200.0 mg/kg/injection, schedule: Q04DX002 (ip), vehicle: saline with Tween-80) was 96 % of control; the T/C under setting [9] is 94 % of control; the T/C under setting [10] was 95 % of control.

As for `CCOC(=O)N1CCC2(CC1)CC(=O)N(N1CCCCCC1)C2=O`, the T/C reads like this: under setting [1], 93 % of control; (dose: 200.0 mg/kg/injection, schedule: Q04DX002 (ip), vehicle: Klucel (hydroxypropylcellulose) (HPC)) 93 % of control.

Turning to `CCCCCCCCC(=O)Nc1cccc(OC(=O)NC)c1`, the T/C was 94 % of control under setting [8], 96 % of control under setting [9] and 90 % of control under setting [10].

As to `COc1ccc(CC(=O)NCCc2ccc3c(c2)OCO3)cc1OC`, the T/C is 89 % of control under setting [7]; 91 % of control under setting [2]; 92 % of control under setting [8]; 92 % of control under setting [3]; 96 % of control under setting [9].

`Cc1cc(=O)c2cc(C(=O)c3ccccc3)ccc2[nH]1`: the T/C reads like this: under setting [4], 101 % of control; under setting [5], 98 % of control; under setting [6], 107 % of control.

`O=C(NCCCCCCCCCCNC(=O)Nc1cccc(C2=NCC(O)CN2)c1)Nc1cccc(C2=NCC(O)CN2)c1` (centres undefined): the T/C is, setting by setting: (dose: 5.25 mg/kg/injection, schedule: Q01DX Z (ip), vehicle: carboxymethylcellulose (CMC)) 106 % of control; (dose: 10.5 mg/kg/injection, schedule: Q01DX Z (ip), vehicle: carboxymethylcellulose (CMC)) 117 % of control; (dose: 21.0 mg/kg/injection, schedule: Q01DX Z (ip), vehicle: carboxymethylcellulose (CMC)) 103 % of control; (dose: 42.0 mg/kg/injection, schedule: Q01DX Z (ip), vehicle: carboxymethylcellulose (CMC)) 97 % of control.

For `CNCCCN1c2ccccc2C(C)(C)c2ccccc21`, the T/C under setting [4] was 97 % of control.

`COC(=O)C(CCC(=O)OC(C)(C)C)NC(=O)C(CCC(=O)OC(C)(C)C)NC(=O)OCc1ccccc1` (centres undefined) (Cbz-Glu(OtBu)-Glu(OtBu)-OMe; configuration not given here): the T/C is 100 % of control (dose: 100.0 mg/kg/injection, schedule: Q04DX003 (ip), vehicle: Klucel (hydroxypropylcellulose) (HPC)); 99 % of control (dose: 200.0 mg/kg/injection, schedule: Q04DX003 (ip), vehicle: Klucel (hydroxypropylcellulose) (HPC)); 103 % of control (dose: 400.0 mg/kg/injection, schedule: Q04DX003 (ip), vehicle: Klucel (hydroxypropylcellulose) (HPC)).

The record behind these values is PubChem BioAssay AID248 (DTP/NCI, 2004).
